{"source": "patent US5622983A", "about": "“N-substituted cycloalkyl and polycycloalkyl α-substituted Trp-Phe- and phenethylamine derivatives” (Warner-Lambert Company, priority 1995, dated 1997)", "key": {"[1]": {"assay": "Aspirin-induced gastric damage", "format": "in vivo, rat", "conditions": "15 mg/kg PO", "protocol": "Aspirin-induced gastric damage was assessed in groups of 10 rats each.\nAll animals were fasted for 24 hours before and throughout the experiment. Drug or vehicle was given 10 minutes before an oral dose of 1 mL of a 45-mg/mL suspension of aspirin in 0.5% carboxymethylcellulose (CMC).\nThe animals were sacrificed five hours after aspirin administration and the stomachs removed and opened for examination."}, "[2]": {"assay": "Light/dark exploration test (anxiolytic activity)", "format": "in vivo, mouse", "protocol": "In FIG. 2 the number of mice was 5 and the pretreatment time was 40 minutes. The compound was given p.o. in 0.1, 1, and 10 mg/kg doses.\nThe apparatus was an open-topped box, 45 cm long, 27 cm wide, and 27 cm high, divided into a small (2/5) area and a large (3/5) area by a partition that extended 20 cm above the walls. There was a 7.5×7.5 cm opening in the partition at floor level. The small compartment was painted black and the large compartment white. The floor of each compartment was marked into 9 cm squares. The white compartment was illuminated by a 100-watt tungsten bulb 17 cm above the box and the black compartment by a similarly placed 60-watt red bulb. The laboratory was illuminated with red light.\nAll tests were performed between 13 hundred hours, 0 minutes and 18 hundred hours, 0 minutes. Each mouse was tested by placing it in the center of the white area and allowing it to explore the novel environment for five minutes. Its behavior was recorded on videotape and the behavioral analysis was performed subsequently from the recording. Five parameters were measured: the latency to entry into the dark compartment, the time spent in each area, the number of transitions between compartments, the number of lines crossed in each compartment, and the number of rears in each compartment.\nDrugs were dissolved in water or saline and administered either subcutaneously, intraperitoneally, or by mouth (PO) via a stomach needle."}, "[3]": {"assay": "Palatable Diet Feeding assay", "format": "in vivo, rat", "conditions": "dose producing 50% of the maximum effect possible (zero food intake)", "protocol": "In the Palatable Diet Feeding assay, adult male Hooded Lister rats weighing between 200-400 g were housed individually and trained to eat a palatable diet. This diet consisted of Nestles sweetened condensed milk, powdered rat food and rat water which when blended together set to a firm consistency. […] The intake of palatable diet was measured by weighing the food container before and after the 30-minute access period (limits of accuracy 0.1 g). Care was taken to collect and correct for any spillage of the diet. Rats had free access to pellet food and water except during the 30-minute test period.\nAfter the training period, dose-response curves were constructed for CCK8 and several representative compounds of the present invention (n=8-10 rats per dose level)."}, "Central CCK Receptors": {"target": "T1, Central CCK Receptors (Mus musculus, UniProt P56481)", "T1 sequence (P56481 1-453)": "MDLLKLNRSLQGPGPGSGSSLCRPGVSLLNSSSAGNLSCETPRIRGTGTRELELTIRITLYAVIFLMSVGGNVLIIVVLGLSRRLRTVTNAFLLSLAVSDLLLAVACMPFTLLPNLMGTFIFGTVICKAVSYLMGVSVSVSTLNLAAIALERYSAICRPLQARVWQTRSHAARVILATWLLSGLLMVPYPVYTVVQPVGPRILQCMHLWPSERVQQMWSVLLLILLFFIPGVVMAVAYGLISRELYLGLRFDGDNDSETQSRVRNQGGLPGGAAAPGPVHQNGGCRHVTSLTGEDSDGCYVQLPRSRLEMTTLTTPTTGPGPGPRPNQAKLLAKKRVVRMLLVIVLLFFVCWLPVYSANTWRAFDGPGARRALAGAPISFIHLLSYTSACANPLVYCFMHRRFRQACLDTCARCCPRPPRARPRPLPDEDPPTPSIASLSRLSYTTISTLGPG", "assay": "Binding to central CCK receptors (tritiated-pentagastrin displacement, cerebral cortical membranes)", "conditions": "read-out: Binding to Central CCK Receptors Ki; displacement of 2 nM tritiated-pentagastrin, mouse cerebral cortical membranes", "quoted_text": "The biological activity of compounds of the present invention was evaluated employing an initial screening test which rapidly and accurately measured the binding of the tested compound to known CCK receptor sites.\nThe resulting suspension was centrifuged, the supernate was discarded, and the pellet was washed by resuspension in Tris-HCl buffer followed by recentrifugation.\nIn saturation studies, cerebral cortical membranes were incubated at 23° C. for 120 minutes in a final volume of 500 μliter of Hepes incubation buffer (pH 7.2) together with 0.2-20 nM tritiated-pentagastrin (Amersham International, England).\nIn each case, the nonspecific binding was defined as that persisting in the presence of the unlabeled octapeptide CCK26-33 (10^-6 M).\nFollowing incubation, radioactivity bound to membranes was separated from that free in solution by rapid filtration through Whatman GF/B filters and washed three times with 4 mL of ice cold Tris-HCl buffer.\nThe specific binding to CCK receptor sites was defined as the total bound tritiated-pentagastrin minus the amount of tritiated-pentagastrin bound in the presence of 10^-6 octapeptide, CCK26-33.\nThe inhibition constant (Ki) of the test compound was then calculated according to the Cheng-Prusoff equation: [formula] where [L] is the concentration of radiolabel and Ka is the equilibrium dissociation constant."}, "[4]": {"test_system": "pentagastrin stimulated gastric acid secretion", "assay": "Pentagastrin stimulated gastric acid secretion (Ghosh and Schild perfused stomach)", "format": "in vivo, rat", "conditions": "1 nmole/kg pentagastrin", "protocol": "They were anesthetized with urethane (1.5 g/kg IP) and the trachea cannulated to aid spontaneous respiration. The stomach was perfused continuously using a modification of the original method of Ghosh & Schild in \"Continuous recording of acid secretion in the rat\", Br. J. Pharmac. […] The fluid was propelled by a roller pump (Gilson, Minipuls 2), through heating coils to bring its temperature to 37°±1° C. The perfusion fluid was collected by the fundic collecting funnel and passed to a pH electrode connected to a Jenway pH meter (PHM6). An output was taken from the pH meter to a Rikadenki chart recorder for the on-line recording of the pH of the gastric perfusate.\nPentagastrin was stored as a frozen aliquot and diluted to the required concentrations with sterile 0.9% w/v NaCl. Novel compounds were dissolved in sterile 0.9% w/v NaCl on the day of the experiment. Drugs were administered IV through a cannulated jugular vein as a bolus in a dose volume of 1 mL/kg washed in with 0.15 mL 0.9% w/v NaCl. Basal pH was allowed to stabilize before administration of compounds was begun."}, "[5]": {"assay": "Withdrawal from long-term drug or alcohol treatment, mouse light/dark box test", "format": "in vivo", "conditions": "24-hour withdrawal", "protocol": "The effect of the compounds of the instant invention is illustrated, for example, in the mouse \"light/dark box\" test in FIGS. 5-12.\nIn FIG. 5, five animals were given nicotine, 0.1 mg/kg i.p.b.d. for 14 days. After a 24-hour withdrawal period, compound (20) was given at 1.0 mg/kg i.p.b.d.\nFIG. 6 illustrates the effect of long-term treatment and withdrawal from nicotine using compound (20A). Five mice were given nicotine at 0.1 mg/kg i.p.b.d. for 14 days. After a withdrawal period of 24 hours, compound (20A) was given at 10 mg/kg i.p.b.d.\nFIG. 7 illustrates the effect of long-term treatment and withdrawal from diazepam with intervention with compound (20). Five mice were given diazepam, at 10 mg/kg i.p.b.d. for seven days. Withdrawal was for a 24-hour period; compound 20 was given at 1.0 mg/kg i.p.b.d.\nFIG. 8 illustrates the effect of compound (20A) on the long-term treatment and withdrawal from diazepam. Five mice were given diazepam at 10 mg/kg i.p.b.d. for seven days. After a withdrawal period of 24 hours, compound (20A) was given at 10 mg/kg i.p.b.d.\nFIG. 9 illustrates the effect compound (20A) on the long-term treatment and withdrawal from alcohol. Five mice were given alcohol in drinking water 8% w/v for 14 days. After a withdrawal period of 24 hours, compound (20) was given at 1.0 mg/kg i.p.b.d.\nFive mice were given alcohol in drinking water, 8% w/v for 14 days. After a withdrawal period of 24 hours, compound (20A) was given at 10 mg/kg i.p.b.d.\nFIG. 11 illustrates the effectiveness in the long-term treatment and withdrawal from cocaine. Five mice were given cocaine as 1.0 mg/kg i.p.b.d. for 14 days.\nFive mice were given cocaine at 1.0 mg/kg i.p.b.d. for 14 days after a withdrawal period of 24 hours, compound (20a) was given at 1.0 mg/kg i.p.b.d."}, "[6]": {"assay": "Antagonism of intra-accumbens amphetamine hyperactivity (antipsychotic activity)", "format": "in vivo, rat", "conditions": "20 mg/kg or 30 mg/kg intraperitoneal; amphetamine 20 μg", "protocol": "Male Sprague Dawley (CD) Bradford strain rats were used. The rats were housed in groups of five at a temperature of 21°±2° C. on a 12 hour light-dark cycle of lights-on between 07 hours 00 minutes and […]. Rats were fed CRM diet (Labsure) and allowed water ad libitum.\nRats were anesthetized with chloral hydrate (400 mg/kg SC) and placed in a Kopf stereotaxic frame. Chronically indwelling guide cannulae (constructedof stainless steel tubing 0.65 mm diameter held bilaterally in Parspex holders) were implanted using standard stereotaxic techniques to terminate 3.5 mm above the center of the nucleus accumbens (Ant. 9.4, Vert. 0.0, Lat. 1.6) or 5.0 mm above the central nucleus of the amygdala (Ant. 5.8, Vert. -1.8, Lat. ±4.5) (atlas of De Groot, 1959). The guides were kept patent during a 14-day recovery period using stainless steel stylers, 0.3 mm diameter, which extended 0.5 mmbeyond the guide tips.\nRats were manually restrained and the stylers removed. Intracerebral injection cannulae, 0.3 mm diameter, were inserted and drugs delivered in a volume of 0.5 μl over 5 seconds (a further 55 seconds was allowed for deposition) from Hamilton syringes attached via polythene tubing to the injection units. […]\nThe abilities of the compounds (20) and (20A) to inhibit the hyperactivity caused by the injection of amphetamine into the nucleus accumbens of the rat was measured. […]"}}}
{"smiles": "CNC(=C[N+](=O)[O-])NCCSCc1ccc(CN(C)C)o1", "note": "[ranitidine, reference compound]", "values": [{"measurement": "inhibition of ulcer formation", "setting": "[1]", "result": 74, "unit": "%"}, {"measurement": "ulcer score", "setting": "[1]; ±SD, saline control 12.1±6.85", "result": "3.2±2.35"}]}
{"smiles": "CN1C(=O)CN=C(c2ccccc2)c2cc(Cl)ccc21", "note": "[Diazepam, reference compound]", "values": [{"measurement": "effect on crossings compared with compound (20)", "setting": "[2]; 0.25 mg/kg IP, same experiment", "result": "effect identical to compound (20)"}]}
{"smiles": "C[C@](Cc1c[nH]c2ccccc12)(NC(=O)OC1C2CC3CC(C2)CC1C3)C(=O)NC[C@H](NC(=O)/C=C/C(=O)O)c1ccccc1", "note": "(relative stereo) [Example 22, [R-[R*,R*-(E)]]-4-[[2-[[3-(1H-indol-3-yl)-2-methyl-1-oxo-2-[[(tricyclo[3.3.1.1^3,7]dec-2-yloxy)carbonyl]amino]propyl]amino]-1-pbenylethyl]amino]-4-oxo-2-butenoic acid]", "values": [{"measurement": "time spent in the light area of the test box", "setting": "[2]; SC", "result": "significantly (p <0.01) increased the time spent in the light area"}, {"measurement": "anxiolytic activity by the subcutaneous route", "setting": "[2]; subcutaneous", "result": "active"}]}
{"smiles": "CC(Cc1c[nH]c2ccccc12)(NC(=O)OC1C2CC3CC(C2)CC1C3)C(=O)NC(COC(=O)CCC(=O)O)Cc1ccccc1", "note": "(stereo not drawn) [Example 16, [R-(R*,S*)]-2-[[3-(1H-indol-3-yl)-2-methyl-1-oxo-2-[[(tricyclo[3.3.1.1^3,7 dec-2-yloxy)carbonyl]amino]propyl]amino]-3-phenylpropyl butanedioate]", "values": [{"measurement": "Inhibition of Feeding on Rat Palatable Diet Assay I.P. MPE50", "setting": "[3]", "result": 10.5, "unit": "mg/kg"}, {"measurement": "Ki", "setting": "Central CCK Receptors", "result": 30, "unit": "nM"}, {"measurement": "reversibility of the antagonism", "setting": "[4]", "result": "reversible with full recovery of the response to pentagastrin"}, {"measurement": "effect on stimulation of gastric acid secretion produced by pentagastrin", "setting": "[4]; compound IV, anesthetized rat", "result": "attenuated"}, {"measurement": "gastric acid secreted in response to pentagastrin after compound", "setting": "[4]; cumulative dose of 1.1 μmole/kg, initial pentagastrin response 254 μmoles/1 H^+", "result": 128, "unit": "μmoles/1 H^+"}]}
{"smiles": "CC(Cc1c[nH]c2ccccc12)(NC(=O)OC1CC2CCC1(C)C2(C)C)C(=O)NCC(NC(=O)CCC(=O)O)c1ccccc1", "note": "(stereo not drawn) [Example 20A, [1S -[1α,2β[S*(S*)], 4α]]-4-[[2-[[3-(1H-indol-3-yl)-2-methyl-1-oxo-2-[[[(1,7,7-trimethylbicyclo[2.2.1]hept-2-yl)oxy]carbonyl]amino]propyl]amino]-1-phenylethyl]amino]-4-oxobutanoic acid]", "values": [{"measurement": "Ki", "setting": "Central CCK Receptors", "result": 3, "unit": "nM"}, {"measurement": "time spent in the light section after withdrawal from alcohol (FIG. 10)", "setting": "[5]; alcohol 8% w/v in drinking water 14 days, compound 10 mg/kg i.p.b.d.", "result": "increased time spent in the light section"}, {"measurement": "time spent in the light section after withdrawal from cocaine (FIG. 12)", "setting": "[5]; cocaine 1.0 mg/kg i.p.b.d. 14 days, compound 1.0 mg/kg i.p.b.d.", "result": "increase in time spent in the light section"}, {"measurement": "time spent in the light section after withdrawal from diazepam (FIG. 8)", "setting": "[5]; diazepam 10 mg/kg i.p.b.d. seven days, compound 10 mg/kg i.p.b.d.", "result": "demonstrates the effectiveness of the compound"}, {"measurement": "time spent in the light area after withdrawal from nicotine (FIG. 6)", "setting": "[5]; nicotine 0.1 mg/kg i.p.b.d. 14 days, compound 10 mg/kg i.p.b.d.", "result": "increase of time spent in the light area"}, {"measurement": "hyperactivity caused by intra-accumbens injection of amphetamine", "setting": "[6]", "result": "reduced the hyperactivity"}]}
